The values that follow come from the supplement of paper PMC10307832.

Common to all, as to assay: relative viability (nuclei count vs DMSO), 5 days (fraction); higher = more cells survive
Compound in one experiment: CN1CCN(CC1)C2=CC(=C(C=C2)NC3=NC(=C(S3)C(=O)C4=C(C=CC=C4Cl)Cl)N)OC [XMD14-99]
Put shortly: (§1)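 In 1536-well plates, lung cancer cell lines rested overnight at 37 °C before five library-drug doses (not always all listed), √10 apart, were pinned onto vehicle-anchored plates. Nuclei were counted with MetaXpress from 4× Hoechst images taken after 5 days without medium change. Viability compares treated-well with vehicle-well nuclei as a median over plates, and plates needed control CV below 25% plus at least one doubling to pass.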

Compound in a further experiment: N[C@@H]1CCCN(c2c(/C=C3\SC(=O)NC3=O)cccc2-c2ccccc2)C1 [AZD1208]
Put shortly: as §1

Compound in the experiment “AZD1208 + Navitoclax”: N[C@@H]1CCCN(c2c(/C=C3\SC(=O)NC3=O)cccc2-c2ccccc2)C1 [AZD1208] + CC1(C)CCC(c2ccc(Cl)cc2)=C(CN2CCN(c3ccc(C(=O)NS(=O)(=O)c4ccc(N[C@H](CCN5CCOCC5)CSc5ccccc5)c(S(=O)(=O)C(F)(F)F)c4)cc3)CC2)C1 [Navitoclax] (partner 0.5 µM)
Put shortly:
(§2)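 Relative viability divides the nuclei count in treated wells by that in vehicle wells. Lung cancer cell lines were seeded in 1536-well plates, dosed by pin tool the next day, and fixed and stained after 5 days in one step with final 0.05% Triton X-100, 1% formaldehyde and 1 ug/ml Hoechst. Dosing was a single drug or a fixed anchor-drug dose plus five library-drug doses (not always all listed) in √10 steps, and values are medians of duplicate plates imaged at 4×.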

Compound in the experiment “XMD14-99 + Trametinib”: CN1CCN(CC1)C2=CC(=C(C=C2)NC3=NC(=C(S3)C(=O)C4=C(C=CC=C4Cl)Cl)N)OC [XMD14-99] + CC(=O)Nc1cccc(-n2c(=O)n(C3CC3)c(=O)c3c(Nc4ccc(I)cc4F)n(C)c(=O)c(C)c32)c1 [Trametinib] (partner 0.02 µM)
Put shortly:
as §2

Take NCI-H441: the relative viability is 0.912 with XMD14-99 (0.08 µM); 0.968 with XMD14-99 (0.8 µM); 0.847 with XMD14-99 (2.53 µM); 0.645 with XMD14-99 (8 µM); 0.937 with AZD1208 (0.08 µM); 1.14 with AZD1208 (0.253 µM). The relative viability with AZD1208 (0.8 µM) was found to be 0.896; with AZD1208 (2.53 µM), 0.989; in the experiment with AZD1208 (8 µM), 0.736; with AZD1208 + Navitoclax (first compound 0.08 µM), 0.936; with AZD1208 + Navitoclax (first compound 0.253 µM), 0.698; with AZD1208 + Navitoclax (first compound 0.8 µM), 0.65. Moreover, the relative viability with AZD1208 + Navitoclax (first compound 2.53 µM) came out at 0.289; with AZD1208 + Navitoclax (first compound 8 µM) it was 0.393; with XMD14-99 + Trametinib (first compound 0.08 µM) it was 0.523; in the experiment with XMD14-99 + Trametinib (first compound 0.8 µM), 0.436; in the experiment with XMD14-99 + Trametinib (first compound 2.53 µM), 0.389; with XMD14-99 + Trametinib (first compound 8 µM) it was 0.263.

For the cell line NCI-H2170, the relative viability with XMD14-99 (0.08 µM) worked out at 0.97; with XMD14-99 (0.8 µM) it was 1.01; with XMD14-99 (2.53 µM), 0.995; with XMD14-99 (8 µM) it was 0.925; with AZD1208 (0.08 µM), 0.99; in the experiment with AZD1208 (0.253 µM), 0.994. For the same cell line, the relative viability with AZD1208 (0.8 µM) turned out to be 0.945; in the experiment with AZD1208 (2.53 µM), 0.964; with AZD1208 (8 µM), 0.64; with AZD1208 + Navitoclax (first compound 0.08 µM) it was 0.505; with AZD1208 + Navitoclax (first compound 0.253 µM), 0.664; with AZD1208 + Navitoclax (first compound 0.8 µM), 0.418. The relative viability in the experiment with AZD1208 + Navitoclax (first compound 2.53 µM) was found to be 0.521; with AZD1208 + Navitoclax (first compound 8 µM) it was 0.251; in the experiment with XMD14-99 + Trametinib (first compound 0.08 µM), 0.924; with XMD14-99 + Trametinib (first compound 0.8 µM), 0.873; in the experiment with XMD14-99 + Trametinib (first compound 2.53 µM), 0.828; in the experiment with XMD14-99 + Trametinib (first compound 8 µM), 0.786.

Regarding NCI-H1395, the relative viability with XMD14-99 (0.08 µM) is 0.981; in the experiment with XMD14-99 (0.8 µM), 0.951; with XMD14-99 (2.53 µM) it was 0.997; with XMD14-99 (8 µM) it was 0.695; with AZD1208 (0.08 µM), 1.15; in the experiment with AZD1208 (0.253 µM), 1. The relative viability with AZD1208 (0.8 µM) turned out to be 0.93; with AZD1208 (2.53 µM), 0.913; with AZD1208 (8 µM), 0.697; with AZD1208 + Navitoclax (first compound 0.08 µM), 1.05; with AZD1208 + Navitoclax (first compound 0.253 µM) it was 1.23; with AZD1208 + Navitoclax (first compound 0.8 µM), 0.956. Besides, the relative viability in the experiment with AZD1208 + Navitoclax (first compound 2.53 µM) stood at 1.02; with AZD1208 + Navitoclax (first compound 8 µM) it was 0.872; with XMD14-99 + Trametinib (first compound 0.08 µM), 0.992; in the experiment with XMD14-99 + Trametinib (first compound 0.8 µM) it was 1.05; in the experiment with XMD14-99 + Trametinib (first compound 2.53 µM), 0.958; with XMD14-99 + Trametinib (first compound 8 µM), 1.

As for PC-14, the relative viability worked out at 1.02 with XMD14-99 (0.08 µM); 1.01 in the experiment with XMD14-99 (0.8 µM); 0.907 with XMD14-99 (2.53 µM); 0.646 with XMD14-99 (8 µM); 1.07 with AZD1208 (0.08 µM); 1.11 with AZD1208 (0.253 µM). Further, the relative viability worked out at 0.923 with AZD1208 (0.8 µM); 0.996 with AZD1208 (2.53 µM); 0.953 in the experiment with AZD1208 (8 µM); 1.02 with AZD1208 + Navitoclax (first compound 0.08 µM); 0.988 with AZD1208 + Navitoclax (first compound 0.253 µM); 1.01 with AZD1208 + Navitoclax (first compound 0.8 µM). The relative viability with AZD1208 + Navitoclax (first compound 2.53 µM) stood at 1.02; in the experiment with AZD1208 + Navitoclax (first compound 8 µM), 1; in the experiment with XMD14-99 + Trametinib (first compound 0.08 µM), 0.668; with XMD14-99 + Trametinib (first compound 0.8 µM) it was 0.726; in the experiment with XMD14-99 + Trametinib (first compound 2.53 µM), 0.59; with XMD14-99 + Trametinib (first compound 8 µM) it was 0.217.

With CAL-12T, the relative viability with XMD14-99 (0.08 µM) amounted to 0.974; in the experiment with XMD14-99 (0.8 µM), 1.01; in the experiment with XMD14-99 (2.53 µM) it was 0.933; with XMD14-99 (8 µM) it was 0.692; with AZD1208 (0.08 µM), 1.01; with AZD1208 (0.253 µM) it was 1.13. For the same cell line, the relative viability stood at 0.967 in the experiment with AZD1208 (0.8 µM); 1.01 in the experiment with AZD1208 (2.53 µM); 1.05 in the experiment with AZD1208 (8 µM); 1.28 in the experiment with AZD1208 + Navitoclax (first compound 0.08 µM); 1.39 with AZD1208 + Navitoclax (first compound 0.253 µM); 1.08 in the experiment with AZD1208 + Navitoclax (first compound 0.8 µM). For the same cell line, the relative viability turned out to be 1.28 with AZD1208 + Navitoclax (first compound 2.53 µM); 0.956 in the experiment with AZD1208 + Navitoclax (first compound 8 µM); 0.358 with XMD14-99 + Trametinib (first compound 0.08 µM); 0.305 in the experiment with XMD14-99 + Trametinib (first compound 0.8 µM); 0.268 with XMD14-99 + Trametinib (first compound 2.53 µM); 0.241 with XMD14-99 + Trametinib (first compound 8 µM).
